Results taken from US20240140957A1, “BRIDGED COMPOUNDS AS KRAS G12D INHIBITOR AND DEGRADER AND THE USE THEREOF” (BeiGene Switzerland GmbH, priority 2021, published 2024).

Key:
GDP-loaded KRAS G12D = GDP-loaded KRAS G12D (Homo sapiens, UniProt P01116, G12D); test: KRAS G12D Probe Displacement Assay; assay type: binding; conditions: KRAS G12D 0.5 nM, biotinylated probe 2 4 nM; read-out: KRAS G12D Probe Displacement Assay IC50
GDP-loaded WT KRAS = GDP-loaded WT KRAS (Homo sapiens, UniProt P01116); test: KRAS WT Probe Displacement Assay; assay type: binding; conditions: WT KRAS 3 nM, biotinylated probe 1 60 nM; read-out: KRAS WT Probe Displacement Assay IC50
GDP-loaded WT KRAS, sequence (P01116 1-188 isoform P01116-2): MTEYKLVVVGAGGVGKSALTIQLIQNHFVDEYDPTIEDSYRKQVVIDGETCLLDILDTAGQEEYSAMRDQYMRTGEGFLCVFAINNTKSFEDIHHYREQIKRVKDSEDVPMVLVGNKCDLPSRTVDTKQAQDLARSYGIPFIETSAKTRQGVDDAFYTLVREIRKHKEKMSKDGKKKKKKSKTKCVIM

[1] = tested on: pERK1/2 (THR202/TYR204) in AsPC-1 cells; test: pERK Assay (HTRF) in AsPC-1 cells; assay type: cell-based; conditions: Homo sapiens, ASPC1, 2 h compound treatment
Procedure: AsPC-1 cell line was used in this study. […] 30000 cells per well were seeded into a 96-well plate and incubated overnight. […] After 2 h compound treatment, cells were lysed, and the pERK1/2 (THR202/TYR204) level in the cell lysates was detected by HTRF kit (Cisbio). In brief, a total of 16 μL of cell lysate from each well of a 96-well plate was transferred to a 384-well white assay plate. Lysate from each well was incubated with 2 μL of Eu3+-cryptate (donor) labeled anti-phospho-ERK1/2 and 2 μL of D2 (acceptor) labeled anti-phospho-ERK1/2 antibodies (Cisbio) overnight in dark at room temperature. When donor and acceptor are in close proximity, excitation of the donor with laser triggers a Fluorescence Resonance Energy Transfer (FRET) towards the acceptor, which in turn fluoresces at 655 nm wavelength. FRET signals were measured using a PHERAstar FSX reader (BMG Labtech).

KRAS G12D:SOS1 = KRAS G12D:SOS1 (Homo sapiens, UniProt P01116, G12D); test: KRAS G12D:SOS1 GDP TR-FRET assay; assay type: binding; conditions: GST-KRAS G12D 37.5 nM, GDP 10 μM, His-SOS1 18 nM
KRAS G12D:SOS1, sequence (P01116 1-188 isoform P01116-2 G12D): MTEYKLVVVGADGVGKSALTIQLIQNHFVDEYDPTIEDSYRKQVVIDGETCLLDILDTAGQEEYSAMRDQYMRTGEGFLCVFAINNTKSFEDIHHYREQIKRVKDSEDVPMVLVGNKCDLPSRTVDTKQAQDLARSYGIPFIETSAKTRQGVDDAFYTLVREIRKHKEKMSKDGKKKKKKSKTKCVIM
WT KRAS:SOS1 = WT KRAS:SOS1 (Homo sapiens, UniProt P01116); test: KRAS WT:SOS1 GDP TR-FRET assay; assay type: binding; conditions: GST-WT KRAS 37.5 nM, GDP 10 μM, His-SOS1 18 nM
WT KRAS:SOS1, sequence (P01116 1-188 isoform P01116-2): as the sequence (P01116 1-188 isoform P01116-2) above

GDP-loaded KRAS G12D, sequence (P01116 1-188 isoform P01116-2 G12D): as the sequence (P01116 1-188 isoform P01116-2 G12D) above

SMILES	IC50 (GDP-loaded KRAS G12D)	IC50 (GDP-loaded WT KRAS)	IC50 [1]	IC50 (KRAS G12D:SOS1)	IC50 (WT KRAS:SOS1)
Cc1cc(N)nc(-c2c(Cl)cc3c(N4C5CNCC4COC5)nc(OC[C@@]45CCCN4C[C@H](F)C5)nc3c2F)c1C(F)(F)F (stereo in doubt) [Example E88, 6-(4-(3-oxa-7,9-diazabicyclo[3.3.1]nonan-9-yl)-6-chloro-8-fluoro-2-((2-fluorotetrahydro-1H-pyrrolizin-7a(5H)-yl)methoxy)quinazolin-7-yl)-4-methyl-5-(trifluoromethyl)pyridin-2-amine]	1.7 nM	49 nM	172 nM	–	–
C[C@@H](CN1CCC(F)CC1)Oc1nc(N2C3CCC2CNC3)c2cc(Cl)c(-c3ccc(F)c4sc(N)nc34)c(F)c2n1 [Example E30, 4-(4-(3,8-diazabicyclo[3.2.1]octan-8-yl)-6-chloro-8-fluoro-2-(((S)-1-(4-fluoropiperidin-1-yl)propan-2-yl)oxy)quinazolin-7-yl)-7-fluorobenzo[d]thiazol-2-amine]	–	–	1810 nM	12 nM	173 nM
C[C@@H](CN1CC(F)C1)Oc1nc(N2CC3CCC(C2)N3)c2cc(Cl)c(-c3ccc(F)c4sc(N)nc34)c(F)c2n1 [Example E31, 4-(4-(3,8-diazabicyclo[3.2.1]octan-3-yl)-6-chloro-8-fluoro-2-(((S)-1-(3-fluoroazetidin-1-yl)propan-2-yl)oxy)quinazolin-7-yl)-7-fluorobenzo[d]thiazol-2-amine]	–	–	1900 nM	11 nM	1080 nM
C[C@@H](CN1CC=CCC1)Oc1nc(N2CC3CCC(C2)N3)c2cc(Cl)c(-c3ccc(F)c4sc(N)nc34)c(F)c2n1 [Example E33, 4-(4-(3,8-diazabicyclo[3.2.1]octan-3-yl)-6-chloro-2-(((S)-1-(3,6-dihydropyridin-1(2H)-yl)propan-2-yl)oxy)-8-fluoroquinazolin-7-yl)-7-fluorobenzo[d]thiazol-2-amine]	–	–	890 nM	6.1 nM	143 nM
C[C@@H](CN1CCN(C)CC1)Oc1nc(N2CC3CCC(C2)N3)c2cc(Cl)c(-c3ccc(F)c4sc(N)nc34)c(F)c2n1 [Example E34, 4-(4-(3,8-diazabicyclo[3.2.1]octan-3-yl)-6-chloro-8-fluoro-2-(((S)-1-(4-methylpiperazin-1-yl)propan-2-yl)oxy)quinazolin-7-yl)-7-fluorobenzo[d]thiazol-2-amine]	–	–	> 10000 nM	15 nM	1350 nM
Nc1nc2c(-c3c(Cl)cc4c(N5C6CCC5CNC6)nc(OC5CC6CCCCN6C5)nc4c3F)ccc(F)c2s1 (stereo not drawn) [Example E39, 4-(4-(3,8-diazabicyclo[3.2.1]octan-8-yl)-6-chloro-8-fluoro-2-((octahydroindolizin-2-yl)oxy)quinazolin-7-yl)-7-fluorobenzo[d]thiazol-2-amine]	–	–	> 10000 nM	54 nM	8160 nM
Nc1nc2c(-c3c(C(F)(F)F)cc4c(N5CC6CCC(C5)N6)nc(OC[C@@]56CCCN5C[C@H](F)C6)nc4c3F)ccc(F)c2s1 [Example E52, 4-(4-(3,8-diazabicyclo[3.2.1]octan-3-yl)-8-fluoro-2-(((2R,7aS)-2-fluorotetrahydro-1H-pyrrolizin-7a(5H)-yl)methoxy)-6-(trifluoromethyl)quinazolin-7-yl)-7-fluorobenzoI[d]thiazol-2-amine]	0.36 nM	3 nM	48 nM	–	–
Nc1nc2c(-c3c(Cl)cc4c(N5CC6CCC(C5)N6)nc(OCC56CCCN5CC(F)C6)nc4c3F)ccc(F)c2s1 (stereo not drawn) [Example E54, 4-(4-(3,8-diazabicyclo[3.2.1]octan-3-yl)-6-chloro-8-fluoro-2-((2-fluorotetrahydro-1H-pyrrolizin-7a(5H)-yl)methoxy)quinazolin-7-yl)-7-fluorobenzo[d]thiazol-2-amine]	0.35 nM	7.5 nM	205 nM	–	–
Nc1nc2c(-c3c(C(F)(F)F)cc4c(N5C6CNCC5COC6)nc(OC[C@@]56CCCN5C[C@H](F)C6)nc4c3F)ccc(F)c2s1 [Example E55, 4-(4-(3-oxa-7,9-diazabicyclo[3.3.1]nonan-9-yl)-8-fluoro-2-(((2R,7aS)-2-fluorotetrahydro-1H-pyrrolizin-7a(5H)-yl)methoxy)-6-(trifluoromethyl)quinazolin-7-yl)-7-fluorobenzo[d]thiazol-2-amine]	0.25 nM	2.7 nM	59 nM	–	–
COCCNC1C[C@H]2CC[C@@H]1N2c1nc(OC[C@@]23CCCN2C[C@H](F)C3)nc2c(F)c(-c3ccc(F)c4sc(N)nc34)c(C(F)(F)F)cc12 (stereo partly drawn) [Example E58, 7-fluoro-4-(8-fluoro-2-(((2R,7aS)-2-fluorotetrahydro-1H-pyrrolizin-7a(5H)-yl)methoxy)-4-((1S,4R)-2-((2-methoxyethyl)amino)-7-azabicyclo[2.2.1]heptan-7-yl)-6-(trifluoromethyl)quinazolin-7-yl)benzo[d]thiazol-2-amine]	0.5 nM	7.6 nM	190 nM	–	–
CNC1C[C@H]2CC[C@@H]1N2c1nc(OC[C@@H]2C[C@@H](F)CN2C)nc2c(F)c(-c3ccc(F)c4sc(N)nc34)c(Cl)cc12 (stereo partly drawn) [Example E59, 4-(6-chloro-8-fluoro-2-(((2S,4R)-4-fluoro-1-methylpyrrolidin-2-yl)methoxy)-4-((1S,4R)-2-(methylamino)-7-azabicyclo[2.2.1]heptan-7-yl)quinazolin-7-yl)-7-fluorobenzo[d]thiazol-2-amine]	14 nM	390 nM	1400 nM	–	–
Nc1nc2c(-c3c(C(F)(F)F)cc4c(N5C6CCC5CNC6)nc(OC[C@@]56CCCN5C[C@H](F)C6)nc4c3F)ccc(F)c2s1 [Example E60, 4-(4-(3,8-diazabicyclo[3.2.1]octan-8-yl)-8-fluoro-2-(((2R,7aS)-2-fluorotetrahydro-1H-pyrrolizin-7a(5H)-yl)methoxy)-6-(trifluoromethyl)quinazolin-7-yl)-7-fluorobenzo[d]thiazol-2-amine]	0.27 nM	2.6 nM	34 nM	–	–
CN1CCCC1(C)COc1nc(N2CC3CCC(C2)N3)c2cc(Cl)c(-c3ccc(F)c4sc(N)nc34)c(F)c2n1 (stereo not drawn) [Example E61, 4-(4-(3,8-diazabicyclo [3.2.1]octan-3-yl)-6-chloro-2-((1,2-dimethylpyrrolidin-2-yl)methoxy)-8-fluoroquinazolin-7-yl)-7-fluorobenzo[d]thiazol-2-amine]	2.6 nM	240 nM	2000 nM	–	–
CC1(N2CCCCC2)CN(c2nc(N3CC4CCC(C3)N4)c3cc(Cl)c(-c4ccc(F)c5sc(N)nc45)c(F)c3n2)C1 [Example E62, 4-(4-(3,8-diazabicyclo[3.2.1]octan-3-yl)-6-chloro-8-fluoro-2-(3-methyl-3-(piperidin-1-yl)azetidin-1-yl)quinazolin-7-yl)-7-fluorobenzo[d]thiazol-2-amine]	9.6 nM	660 nM	740 nM	–	–
Nc1nc2c(-c3c(Cl)cc4c(N5CC6CCC(C5)N6)nc(OC[C@@]56CCCN5C[C@H](F)C6)nc4c3Cl)ccc(F)c2s1 [Example E63, 4-(4-(3,8-diazabicyclo[3.2.1]octan-3-yl)-6,8-dichloro-2-(((2R,7aS)-2-fluorotetrahydro-1H-pyrrolizin-7a(5H)-yl)methoxy)quinazolin-7-yl)-7-fluorobenzo[d]thiazol-2-amine]	0.22 nM	8.5 nM	93 nM	–	–
Nc1nc2c(-c3c(C(F)(F)F)cc4c(N5CC6CCC(C5)N6)nc(OC[C@@]56CCCN5C[C@H](F)C6)nc4c3Cl)ccc(F)c2s1 [Example E64, 4-(4-(3,8-diazabicyclo[3.2.1]octan-3-yl)-8-chloro-2-(((2R,7aS)-2-fluorotetrahydro-1H-pyrrolizin-7a(5H)-yl)methoxy)-6-(trifluoromethyl)quinazolin-7-yl)-7-fluorobenzoI[d]thiazol-2-amine]	0.33 nM	5.1 nM	38 nM	–	–
Nc1cc(Cl)c(C(F)(F)F)c(-c2c(Cl)cc3c(N4CC5CCC(C4)N5)nc(OC[C@@]45CCCN4C[C@H](F)C5)nc3c2F)n1 [Example E65, 6-(4-(3,8-diazabicyclo[3.2.1]octan-3-yl)-6-chloro-8-fluoro-2-(((2R,7aS)-2-fluorotetrahydro-1H-pyrrolizin-7a(5H)-yl)methoxy)quinazolin-7-yl)-4-chloro-5-(trifluoromethyl)pyridin-2-amine]	0.44 nM	20.5 nM	65 nM	–	–
C=Cc1cc2c(N3CC4CCC(C3)N4)nc(OC[C@@H]3C[C@@H](F)CN3C)nc2c(F)c1-c1ccc(F)c2sc(N)nc12 [Example E66, 4-(4-((3,8-diazabicyclo[3.2.1]octan-3-yl)-8-fluoro-2-(((2S,4R)-4-fluoro-1-methylpyrrolidin-)-yl)methoxy)-6-vinylquinazolin-7-yl)-7-fluorobenzo[d]thiazol-2-amine]	2.2 nM	72 nM	480 nM	–	–
